In patent publication US11986493B2 (University of Pittsburgh—Of the Commonwealth System of …, priority 2013, dated 2024):

System: subjects with pulmonary hypertension (WHO group I PAH, WHO group III PH)
Test: Right heart catheterization: right heart/pulmonary artery hemodynamics, thermodilution cardiac output, PVR and SVR after inhaled NO and nebulized nitrite
Format: in vivo, human
Description: A total of 6 subjects with a confirmed diagnosis of pulmonary hypertension and meeting all inclusion/exclusion criteria were enrolled in the study which entailed a single right heart catheterization. The study population consisted of subjects with WHO group I PAH (n=3) and subjects with WHO group III PH (n=3) which received the dose escalation paradigm:
During the study right heart/pulmonary artery hemodynamics were measured as well as noninvasive systemic blood pressure monitoring and simultaneous RV echocardiography. Subjects were tested for the changes in pulmonary vascular resistance (PVR) measured by right heart catheterization and using thermodilution cardiac output measurement at time zero, at times 15, 30 and 45 minutes after completion of each nebulization dose.
Following right heart catheterization, the patient was stabilized for 20 minutes. Baseline blood collections and hemodynamic measurements were performed, followed by treatment with 40 ppm inhaled NO gas for […] with repeat hemodynamic measurements performed.
After stopping inhaled NO gas, a single dose of sildenafil was given if patients were on background sildenafil therapy at previously prescribed doses. 45-minutes after sildenafil dose baseline hemodynamics were performed.
Subjects were monitored carefully during and after the study treatment.
The study was conducted at the 3rd FL Catheterization Laboratory at Presbyterian Hospital of the University of Pittsburgh Medical Center (UPMC). Baseline vasoreactivity was recorded after Inhaled NO at 40 ppm for […]. […] Subjects were instructed to breathe as calmly, and deeply as possible until no more mist was formed in the nebulizer chamber. Subjects were also instructed to hold their breath for approximately 10 seconds after inhalation to allow the study drug to reach deep into the lungs.

[1] = Patient 1, nitrite 45 mg inhaled, 15 min
[2] = Patient 1, nitrite 45 mg inhaled, 30 min
[3] = Patient 1, nitrite 45 mg inhaled, 45 min
[4] = Patient 1, nitrite 45 mg inhaled, 60 min
[5] = Patient 1, nitrite 90 mg inhaled, 15 min
[6] = Patient 1, nitrite 90 mg inhaled, 30 min
[7] = Patient 1, nitrite 90 mg inhaled, 45 min
[8] = Patient 1, nitrite 90 mg inhaled, 60 min
[9] = Patient 2, nitrite 45 mg inhaled, 15 min
[10] = Patient 2, nitrite 45 mg inhaled, 30 min
[11] = Patient 2, nitrite 45 mg inhaled, 45 min
[12] = Patient 2, nitrite 45 mg inhaled, 60 min
[13] = Patient 2, nitrite 90 mg inhaled, 15 min
[14] = Patient 2, nitrite 90 mg inhaled, 30 min
[15] = Patient 2, nitrite 90 mg inhaled, 45 min
[16] = Patient 2, nitrite 90 mg inhaled, 60 min
[17] = Patient 3, nitrite 45 mg inhaled, 15 min
[18] = Patient 3, nitrite 45 mg inhaled, 30 min
[19] = Patient 3, nitrite 45 mg inhaled, 45 min
[20] = Patient 3, nitrite 45 mg inhaled, 60 min
[21] = Patient 3, nitrite 90 mg inhaled, 15 min
[22] = Patient 3, nitrite 90 mg inhaled, 30 min
[23] = Patient 3, nitrite 90 mg inhaled, 45 min
[24] = Patient 3, nitrite 90 mg inhaled, 60 min

Structure (SMILES): O=NO [nitrite, sodium nitrite]
- CI [1]: 2.47
- CO [1]: 4.77
- PA sat [1]: 66
- PAD [1]: 35
- PAS [1]: 93
- PCWP [1]: 11
- PVR [1]: 9.09
- PVR/SVR [1]: 0.58
- RA [1]: 9
- RVD [1]: 8
- RVS [1]: 98
- SVR [1]: 15.66
- TPR [1]: 11.39
- mPAP [1]: 54.34
- CI [2]: 2.65
- CO [2]: 5.12
- PA sat [2]: 68
- PAD [2]: 36
- PAS [2]: 98
- PCWP [2]: 7
- PVR [2]: 9.70
- PVR/SVR [2]: 0.64
- RA [2]: 10
- RVD [2]: 10
- RVS [2]: 94
- SVR [2]: 15.24
- TPR [2]: 11.07
- mPAP [2]: 56.67
- CI [3]: 2.51
- CO [3]: 4.85
- PA sat [3]: 63
- PAD [3]: 38
- PAS [3]: 100
- PCWP [3]: 9
- PVR [3]: 10.24
- PVR/SVR [3]: 0.66
- RA [3]: 9
- RVD [3]: 9
- RVS [3]: 95
- SVR [3]: 15.53
- TPR [3]: 12.10
- mPAP [3]: 58.67
- CI [4]: 3.11
- CO [4]: 6.01
- PA sat [4]: 62
- PAD [4]: 36
- PAS [4]: 98
- PCWP [4]: 7
- PVR [4]: 8.27
- PVR/SVR [4]: 0.63
- RA [4]: 9
- RVD [4]: 9
- RVS [4]: 94
- SVR [4]: 13.15
- TPR [4]: 9.43
- mPAP [4]: 56.67
- CI [5]: 2.93
- CO [5]: 5.65
- PA sat [5]: 64
- PAD [5]: 32
- PAS [5]: 92
- PCWP [5]: 2
- PVR [5]: 8.85
- PVR/SVR [5]: 0.68
- RA [5]: 3
- RVD [5]: 3
- RVS [5]: 96
- SVR [5]: 13.10
- TPR [5]: 9.20
- mPAP [5]: 52.01
- CI [6]: 2.99
- CO [6]: 5.77
- PA sat [6]: 61
- PAD [6]: 32
- PAS [6]: 92
- PCWP [6]: 2
- PVR [6]: 8.67
- PVR/SVR [6]: 0.68
- RA [6]: 4
- RVD [6]: 3
- RVS [6]: 91
- SVR [6]: 12.83
- TPR [6]: 9.01
- mPAP [6]: 52.01
- CI [7]: 3.22
- CO [7]: 6.22
- PA sat [7]: 62
- PAD [7]: 31
- PAS [7]: 90
- PCWP [7]: 2
- PVR [7]: 7.83
- PVR/SVR [7]: 0.67
- RA [7]: 3
- RVD [7]: 3
- RVS [7]: 92
- SVR [7]: 11.63
- TPR [7]: 8.15
- mPAP [7]: 50.67
- CI [8]: 3.14
- CO [8]: 6.06
- PA sat [8]: 62
- PAD [8]: 30
- PAS [8]: 90
- PCWP [8]: 3
- PVR [8]: 7.76
- PVR/SVR [8]: 0.61
- RA [8]: 3
- RVD [8]: 2
- RVS [8]: 88
- SVR [8]: 12.65
- TPR [8]: 8.25
- mPAP [8]: 50.01
- CI [9]: 3.67
- CO [9]: 7.08
- PAD [9]: 19
- PAS [9]: 57
- PCWP [9]: 8
- PVR [9]: 3.34
- PVR/SVR [9]: 0.25
- RA [9]: 6
- SVR [9]: 13.28
- TPR [9]: 4.47
- mPAP [9]: 31.67
- CI [10]: 3.88
- CO [10]: 7.48
- PAD [10]: 22
- PAS [10]: 64
- PCWP [10]: 9
- PVR [10]: 3.61
- PVR/SVR [10]: 0.30
- RA [10]: 6
- SVR [10]: 11.99
- TPR [10]: 4.81
- mPAP [10]: 36.01
- CI [11]: 3.93
- CO [11]: 7.58
- PAD [11]: 21
- PAS [11]: 62
- PCWP [11]: 8
- PVR [11]: 3.52
- PVR/SVR [11]: 0.29
- RA [11]: 3
- SVR [11]: 12.23
- TPR [11]: 4.57
- mPAP [11]: 34.67
- CI [12]: 3.89
- CO [12]: 7.5
- PAD [12]: 21
- PAS [12]: 64
- PCWP [12]: 8
- PVR [12]: 3.65
- PVR/SVR [12]: 0.32
- RA [12]: 4
- SVR [12]: 11.38
- TPR [12]: 4.71
- mPAP [12]: 35.34
- CI [13]: 3.81
- CO [13]: 7.35
- PAD [13]: 20
- PAS [13]: 57
- PCWP [13]: 8
- PVR [13]: 3.31
- PVR/SVR [13]: 0.25
- RA [13]: 2
- SVR [13]: 13.06
- TPR [13]: 4.40
- mPAP [13]: 32.34
- CI [14]: 4.60
- CO [14]: 8.87
- PAD [14]: 22
- PAS [14]: 60
- PCWP [14]: 6
- PVR [14]: 3.23
- PVR/SVR [14]: 0.31
- RA [14]: 3
- SVR [14]: 10.41
- TPR [14]: 3.91
- mPAP [14]: 34.67
- CI [15]: 4.19
- CO [15]: 8.09
- PAD [15]: 21
- PAS [15]: 62
- PCWP [15]: 7
- PVR [15]: 3.42
- PVR/SVR [15]: 0.28
- RA [15]: 3
- SVR [15]: 12.12
- TPR [15]: 4.29
- mPAP [15]: 34.67
- CI [16]: 4.56
- CO [16]: 8.8
- PAD [16]: 22
- PAS [16]: 68
- PCWP [16]: 6
- PVR [16]: 3.56
- PVR/SVR [16]: 0.33
- RA [16]: 5
- RVD [16]: 3
- RVS [16]: 62
- SVR [16]: 10.76
- TPR [16]: 4.24
- mPAP [16]: 37.34
- CI [17]: 3.19
- CO [17]: 6.63
- PAD [17]: 19
- PAS [17]: 80
- PCWP [17]: 14
- PVR [17]: 3.82
- PVR/SVR [17]: 0.45
- RA [17]: 12
- SVR [17]: 8.55
- TPR [17]: 5.93
- mPAP [17]: 39.34
- CI [18]: 3.08
- CO [18]: 6.4
- PAD [18]: 20
- PAS [18]: 70
- PCWP [18]: 15
- PVR [18]: 3.39
- PVR/SVR [18]: 0.37
- RA [18]: 10
- SVR [18]: 9.22
- TPR [18]: 5.73
- mPAP [18]: 35.67
- CI [19]: 3.17
- CO [19]: 6.6
- PAD [19]: 20
- PAS [19]: 74
- PCWP [19]: 14
- PVR [19]: 3.64
- PVR/SVR [19]: 0.42
- RA [19]: 13
- SVR [19]: 8.64
- TPR [19]: 5.76
- mPAP [19]: 38.01
- CI [20]: 3.07
- CO [20]: 6.39
- PAD [20]: 20
- PAS [20]: 70
- PCWP [20]: 14
- PVR [20]: 3.55
- PVR/SVR [20]: 0.40
- RA [20]: 13
- SVR [20]: 8.92
- TPR [20]: 5.74
- mPAP [20]: 36.67
- CI [21]: 3.69
- CO [21]: 7.67
- PAD [21]: 19
- PAS [21]: 69
- PCWP [21]: 13
- PVR [21]: 2.96
- PVR/SVR [21]: 0.40
- RA [21]: 12
- SVR [21]: 7.48
- TPR [21]: 4.65
- mPAP [21]: 35.67
- CI [22]: 2.41
- CO [22]: 5.01
- PAD [22]: 17
- PAS [22]: 73
- PCWP [22]: 11
- PVR [22]: 4.92
- PVR/SVR [22]: 0.39
- RA [22]: 10
- SVR [22]: 12.51
- TPR [22]: 7.12
- mPAP [22]: 35.67
- CI [23]: 2.94
- CO [23]: 6.11
- PAD [23]: 19
- PAS [23]: 71
- PCWP [23]: 12
- PVR [23]: 3.98
- PVR/SVR [23]: 0.42
- RA [23]: 11
- SVR [23]: 9.55
- TPR [23]: 5.95
- mPAP [23]: 36.34
- CI [24]: 3.34
- CO [24]: 6.95
- PAD [24]: 20
- PAS [24]: 72
- PCWP [24]: 14
- PVR [24]: 3.36
- PVR/SVR [24]: 0.36
- RA [24]: 9
- RVD [24]: 8
- RVS [24]: 71
- SVR [24]: 9.31
- TPR [24]: 5.37
